{"source": "patent US9457031B2", "about": "“Antibacterial protein kinase inhibitors” (priority 2012, dated 2016)", "key": {"M. tb [1]": {"tested_on": "M. tb", "type": "cell-based, Mycobacterium tuberculosis", "conditions": "5 μM concentration against M. tb during 72 h; FIGS. 4a and 4b"}, "M. smegmatis": {"tested_on": "M. smegmatis", "type": "cell-based", "conditions": "compared to the parent OSU-03012 and the other derivatives; FIG. 1"}, "M. tb [2]": {"tested_on": "M. tb", "test": "colony-forming unit (CFU) assay to determine bacterial survival", "type": "cell-based, Mycobacterium tuberculosis", "conditions": "compared to the parent OSU-03012 and the other derivatives; FIG. 1"}}, "data": [{"compound": "CNC(=O)CCc1cc(-c2ccc(-c3ccc(C(F)(F)F)cc3)cc2)n(-c2ccc(NC(=O)N3CCOCC3)cc2)n1", "note": "[cpd2-24-3, N-(4-(3-(3-(methylamino)-3-oxopropyl)-5-(4′-(trifluoromethyl)-[1,1′-biphenyl]-4-yl)-1H-pyrazol-1-yl)phenyl)morpholine-4-carboxamide]", "values": [{"measurement": "in vitro antimycobacterial activity upon screening of cpd2-24 derivatives", "setting": "M. tb [1]", "result": "particularly effective"}]}, {"compound": "CNC(=O)CCc1cc(-c2ccc(-c3ccc(C(F)(F)F)cc3)cc2)n(-c2ccc(NC(=O)c3ccncc3)cc2)n1", "note": "[cpd2-24-5, N-(4-(3-(3-(methylamino)-3-oxopropyl)-5-(4′-(trifluoromethyl)-[1,1′-biphenyl]-4-yl)-1H-pyrazol-1-yl)phenyl)isonicotinamide]", "values": [{"measurement": "in vitro antimycobacterial activity upon screening of cpd2-24 derivatives", "setting": "M. tb [1]", "result": "particularly effective"}]}, {"compound": "CNC(=O)CCc1cc(-c2ccc(-c3ccc(C(F)(F)F)cc3)cc2)n(-c2ccc(NC(=O)c3ccccn3)cc2)n1", "note": "[cpd2-24-6, N-(4-(3-(3-(methylamino)-3-oxopropyl)-5-(4′-(trifluoromethyl)-[1,1′-biphenyl]-4-yl)-1H-pyrazol-1-yl)phenyl)picolinamide]", "values": [{"measurement": "in vitro antimycobacterial activity upon screening of cpd2-24 derivatives", "setting": "M. tb [1]", "result": "particularly effective"}]}, {"compound": "CNC(=O)CCc1cc(-c2ccc(-c3ccc(C(F)(F)F)cc3)cc2)n(-c2ccc(NC(=O)c3cccnc3)cc2)n1", "note": "[cpd2-24-7, N-(4-(3-(3-(methylamino)-3-oxopropyl)-5-(4′-(trifluoromethyl)-[1,1′-biphenyl]-4-yl)-1H-pyrazol-1-yl)phenyl)nicotinamide]", "values": [{"measurement": "in vitro antimycobacterial activity upon screening of cpd2-24 derivatives", "setting": "M. tb [1]", "result": "particularly effective"}]}, {"compound": "NS(=O)(=O)Nc1ccc(-n2nc(C(F)(F)F)cc2-c2ccc3c(ccc4ccccc43)c2)cc1", "note": "[cpd-2]", "values": [{"measurement": "killing of M. smegmatis (bacterial survival, CFU)", "setting": "M. smegmatis", "result": "significantly kill"}, {"measurement": "killing of M. tb (bacterial survival, CFU)", "setting": "M. tb [2]", "result": "significantly kill"}]}]}
